Laboratory results from US10377763B2, “Morphinan derivative and medical usage thereof” (UNIVERSITY OF TSUKUBA, priority 2015, dated 2019).
Like-named read-outs stand apart in the source and are kept apart here.

How the values were obtained:
human OX1R = human OX1R (Homo sapiens (Human), UniProt O43613); experiment: Measurement of antagonistic activity against orexin receptors (intracellular calcium, CHOOX1R cells); assay type: cell-based; conditions: for antagonistic activity against human OX1 receptor (in words): summary of Table 6
Chain of human OX1R (O43613 whole entry): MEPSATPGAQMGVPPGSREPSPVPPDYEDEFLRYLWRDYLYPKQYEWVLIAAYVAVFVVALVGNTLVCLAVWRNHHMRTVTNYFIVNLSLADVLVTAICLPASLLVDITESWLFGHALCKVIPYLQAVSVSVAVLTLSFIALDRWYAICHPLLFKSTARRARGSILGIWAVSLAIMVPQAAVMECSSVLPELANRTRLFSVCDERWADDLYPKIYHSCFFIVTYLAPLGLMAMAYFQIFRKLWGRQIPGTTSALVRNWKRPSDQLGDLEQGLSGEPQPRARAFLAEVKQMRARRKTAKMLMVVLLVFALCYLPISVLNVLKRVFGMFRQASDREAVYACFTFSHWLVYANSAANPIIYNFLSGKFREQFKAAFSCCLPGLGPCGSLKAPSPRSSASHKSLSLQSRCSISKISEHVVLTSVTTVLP
Procedure: (§1) The Chinese hamster ovary (CHO) cell lines CHOOX1R and CHOOX2R were established by modifying CHO cells to constantly express the NFAT-luciferase gene and either the human OX1R or human OX2R gene. Those cells were plated at 10,000 cells/well in 96-well multiplates with DMEM (manufactured by Sigma-Aldrich Co. LLC) supplemented with 5% FBS (manufactured by Thermo Scientific Inc.) and incubated at 37° C. and 5% CO2 for 48 hours. After removal of the medium, 100 μL of an assay buffer (20 mM HEPES (manufactured by Sigma-Aldrich Co. LLC), Hank's balanced salt solution (manufactured by Gibco), 0.1% BSA (manufactured by Sigma-Aldrich Co. LLC), 2.5 mM probenecid acid (manufactured by Wako Pure Chemical Industries, Ltd.), pH 7.4) containing 5 μM Fura-2AM (manufactured by Cayman Chemical Co.) was added to each well, and incubated at 37° C. and 5% CO2 for 60 minutes. After removal of the buffer containing Fura-2AM, 75 μL of the assay buffer was added to each well. Then, […] of the assay buffer containing a test compound at various concentrations and OX-A (manufactured by Peptide Institute, Inc.) was added to start the reaction. The change in intracellular calcium ion concentration induced by the reaction was evaluated by the ratio of fluorescent intensities, which were measured at a wavelength of 510 nm based on the two wavelength excitation approach using FDSS 7000 (manufactured by Hamamatsu Photonics K.K.) with fluorescence excitation at 340 nm and 380 nm. A concentration-response curve on the antagonistic activity was plotted from the values of maximal fluorescent intensity ratio determined when various concentrations of a test compound were added in the presence of […] of OX-A, where a value of maximal fluorescent intensity ratio determined by adding 300 pM of OX-A alone corresponds to 100% and a value of maximal fluorescent intensity ratio determined by adding the assay buffer alone corresponds to 0%. Based on the resulting non-linear regression curve, the 50% maximal inhibitory concentration (IC50) was calculated. Each test compound was dissolved in DMSO to a concentration of 10 mM (the final concentration of DMSO was 1%), and then diluted with the assay buffer to give a final concentration of 3.0×10^−10 M to 1.0×10^−5 M (a common ratio of 3), while OX-A was diluted to a final concentration of 300 pM. The experiment was performed in quadruplicate plates, and the results of the four independent measurements were averaged to give the value of each reaction, and then the IC50 of a sample was calculated. If the sample number was 2 or more, the averaged IC50 was used.

human OX2R = human OX2R (Homo sapiens (Human), UniProt O43614); experiment: Measurement of antagonistic activity against orexin receptors (intracellular calcium, CHOOX2R cells); assay type: cell-based
Chain of human OX2R (O43614 whole entry): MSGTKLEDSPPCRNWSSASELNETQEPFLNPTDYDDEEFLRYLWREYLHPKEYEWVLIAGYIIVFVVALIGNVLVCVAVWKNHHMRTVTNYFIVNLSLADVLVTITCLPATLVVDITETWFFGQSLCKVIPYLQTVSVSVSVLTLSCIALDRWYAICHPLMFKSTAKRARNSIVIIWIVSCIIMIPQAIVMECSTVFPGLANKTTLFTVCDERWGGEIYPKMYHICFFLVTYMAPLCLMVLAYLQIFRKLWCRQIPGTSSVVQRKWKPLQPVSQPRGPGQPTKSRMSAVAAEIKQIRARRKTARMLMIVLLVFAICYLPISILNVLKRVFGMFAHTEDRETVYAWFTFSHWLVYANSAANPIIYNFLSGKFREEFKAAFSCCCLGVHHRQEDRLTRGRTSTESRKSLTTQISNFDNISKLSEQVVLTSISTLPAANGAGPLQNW
Procedure: as §1

[1] = CHOOX1R cells, 300 pM OX-A, Fura-2 calcium, read-out: OX1 (IC50)
[2] = CHOOX2R cells, 300 pM OX-A, Fura-2 calcium, read-out: OX2 (IC50)

SMILES	IC50 (human OX1R; [1]) [nM]	antagonistic activity against human OX1 receptor (in words) (human OX1R)	IC50 (human OX2R; [2]) [nM]	IC50 (human OX1R) [nM]	IC50 (human OX2R) [nM]
CN(C(=O)/C=C/c1ccoc1)[C@@H]1CC[C@@]2(O)[C@H]3Cc4ccc(O)c5c4[C@@]2(CCN3CC2CC2)[C@H]1O5.Cl [Comparative Example 1, (E)-N-[(4R,4aS,7R,7aR,12bS)-3-(cyclopropylmethyl)-4a,9-dihydroxy-2,3,4,4a,5,6,7,7a-octahydro-1H-4,12-methanobenzofuro[3,2-e]isoquinolin-7-yl]-3-(furan-3-yl)-N-methylacrylamide hydrochloride, reference compound]	1650	very weak antagonistic activity	> 10000		
COc1ccc2c3c1O[C@H]1[C@H](N(C)Cc4ccccc4)CC[C@@]4(O)[C@@H](C2)N(C(=O)OC(C)(C)C)CC[C@]314 [Comparative Example 2, tert-butyl(4R,4aS,7R,7aR,12bS)-7-[benzyl(methyl)amino]-4a-hydroxy-9-methoxy-1,2,4,4a,5,6,7,7a-octahydro-3H-4,12-methanobenzofuro[3,2-e]isoquinolin-3-carboxylate, reference compound]	2850	very weak antagonistic activity	> 10000		
COc1ccc2c3c1O[C@H]1[C@H](N(C)C(=O)/C=C/c4ccoc4)CC[C@@]4(O)[C@@H](C2)N(S(=O)(=O)c2ccccc2)CC[C@]314 [Example 1, (E)-3-(furan-3-yl)-N-[(4R,4aS,7R,7aR,12bS)-4a-hydroxy-9-methoxy-3-(phenylsulfonyl)-2,3,4,4a,5,6,7,7a-octahydro-1H-4,12-methanobenzofuro[3,2-e]isoquinolin-7-yl]-N-methylacrylamide]		potent and selective antagonistic activity		82.8	> 10000
COc1ccc2c3c1O[C@H]1[C@H](N(C)C(=O)/C=C/c4ccoc4)CC[C@@]4(O)[C@@H](C2)N(S(=O)(=O)c2ccccc2C)CC[C@]314 [Example 2]	30	potent and selective antagonistic activity	> 10000		
COc1ccc2c3c1O[C@H]1[C@H](N(C)C(=O)/C=C/c4ccoc4)CC[C@@]4(O)[C@@H](C2)N(S(=O)(=O)c2cccc(C)c2)CC[C@]314 [Example 3]	24	potent and selective antagonistic activity	> 10000		
COc1ccc2c3c1O[C@H]1[C@H](N(C)C(=O)/C=C/c4ccoc4)CC[C@@]4(O)[C@@H](C2)N(S(=O)(=O)c2ccc(C)cc2)CC[C@]314 [Example 4]	162	potent and selective antagonistic activity	> 10000		
COc1ccc2c3c1O[C@H]1[C@H](N(C)C(=O)/C=C/c4ccoc4)CC[C@@]4(O)[C@@H](C2)N(S(=O)(=O)c2ccccc2C(F)(F)F)CC[C@]314 [Example 5]	419	potent and selective antagonistic activity	> 10000		
COc1ccc2c3c1O[C@H]1[C@H](N(C)C(=O)/C=C/c4ccoc4)CC[C@@]4(O)[C@@H](C2)N(S(=O)(=O)c2ccccc2[N+](=O)[O-])CC[C@]314 [Example 8]	144	potent and selective antagonistic activity	> 10000		
COc1ccc2c3c1O[C@H]1[C@H](N(C)C(=O)/C=C/c4ccoc4)CC[C@@]4(O)[C@@H](C2)N(S(=O)(=O)c2ccccc2C#N)CC[C@]314 [Example 11]	49.1	potent and selective antagonistic activity	> 10000		
COc1ccc2c3c1O[C@H]1[C@H](N(C)C(=O)/C=C/c4ccoc4)CC[C@@]4(O)[C@@H](C2)N(S(=O)(=O)c2cccc(F)c2)CC[C@]314 [Example 15]	112	potent and selective antagonistic activity	> 10000		
